Values after ≈ are worked out from the molar mass of the structure shown.
How the values were obtained:
E. faecalis VSE 1 = test: MIC, broth microdilution, vancomycin-sensitive E. faecalis (VSE 1); assay type: cell-based, Enterococcus faecalis; conditions: for MIC: Enterococcus faecalis VSE 1 (vancomycin-sensitive), read-out: MIC; for MIC-fold improvement vs. vancomycin: VSE 1, ratio of MIC of vancomycin and MIC of analogue
Summary of the method: (§1)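 MIC values come from broth microdilution run to CLSI susceptibility-testing standards. Ultrapure water and uninoculated broth served as controls. In one series, vancomycin at a final 10 μM was co-dosed with the analogue or comparator antibiotic.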

E. faecalis VRE 6 = test: MIC, broth microdilution, vancomycin-resistant E. faecalis VRE 6 (VanA); assay type: cell-based, Enterococcus faecalis; conditions: for MIC: Enterococcus faecalis VRE 6 (vancomycin-resistant), read-out: MIC; for MIC-fold improvement vs. vancomycin: VRE 6, ratio of MIC of vancomycin and MIC of analogue
Summary of the method: as §1

E. faecalis VRE 53 = test: MIC, broth microdilution, vancomycin-resistant E. faecalis VRE 53 (VanA); assay type: cell-based, Enterococcus faecalis; conditions: for MIC: Enterococcus faecalis VRE 53 (vancomycin-resistant), read-out: MIC; for MIC-fold improvement vs. vancomycin: VRE 53, ratio of MIC of vancomycin and MIC of analogue
Summary of the method: as §1

E. faecalis VRE 29 = test: MIC, broth microdilution, vancomycin-resistant E. faecalis VRE 29 (VanA); assay type: cell-based, Enterococcus faecalis; conditions: for MIC: Enterococcus faecalis VRE 29 (vancomycin-resistant), read-out: MIC; for MIC-fold improvement vs. vancomycin: VRE 29, ratio of MIC of vancomycin and MIC of analogue
Summary of the method: as §1

E. faecalis VRE 37 = test: MIC, broth microdilution, vancomycin-resistant E. faecalis VRE 37 (VanA); assay type: cell-based, Enterococcus faecalis; conditions: for MIC: Enterococcus faecalis VRE 37 (vancomycin-resistant), read-out: MIC
Summary of the method: as §1

[1] = tested on: Murine leukemia (L1210) cells; test: Cytostatic activity, L1210 cell proliferation; assay type: cell-based; conditions: mean ± SD of three experiments; highest concentration tested 250 µM; 2 days; read-out: Toxicity (IC50) L1210
Summary of the method: (§2)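 Coulter counter cell counts after 37°C culture with compound; IC50 = concentration giving 50% growth inhibition vs negative control. Incubation: L1210 2 d, CEM 3 d, HeLa 4 d. Suspension density before mixing with an equal volume of dilution: 300,000–500,000 cells/mL.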

[2] = tested on: human T-lymphocyte (CEM) cells; test: Cytostatic activity, CEM cell proliferation; assay type: cell-based; conditions: mean ± SD of three experiments; highest concentration tested 250 µM; 3 days; read-out: Toxicity (IC50) CEM
Summary of the method: as §2

[3] = tested on: human cervix carcinoma (HeLa) cells; test: Cytostatic activity, HeLa cell proliferation; assay type: cell-based; conditions: mean ± SD of three experiments; highest concentration tested 250 µM; 4 days; read-out: Toxicity (IC50) HeLa
Summary of the method: as §2

[4] = tested on: L1210, CEM and HeLa cell lines; test: Cytostatic activity, average or summary over L1210, CEM and HeLa; assay type: cell-based; conditions: average of L1210, CEM and HeLa; read-out: Toxicity (IC50) Average
Summary of the method: as §2

[5] = tested on: S. aureus VSSA (ATCC 6538); test: MIC, broth microdilution, vancomycin-sensitive S. aureus (VSSA/MSSA, ATCC 6538); assay type: cell-based, Staphylococcus aureus; conditions: for MIC: Staphylococcus aureus VSSA, read-out: MIC; for MIC-fold improvement vs. vancomycin: VSSA, ratio of MIC of vancomycin and MIC of analogue
Summary of the method: as §1

S. aureus VISA/HIP5827 = test: MIC, broth microdilution, vancomycin-intermediate S. aureus VISA HIP5827; assay type: cell-based, Staphylococcus aureus; conditions: for MIC: Staphylococcus aureus VISA/HIP5827, read-out: MIC; for MIC-fold improvement vs. vancomycin: VISA/HIP5827, ratio of MIC of vancomycin and MIC of analogue
Summary of the method: as §1

S. aureus VRSA = test: MIC, broth microdilution, vancomycin-resistant S. aureus (VRSA); assay type: cell-based, Staphylococcus aureus; conditions: for MIC: Staphylococcus aureus VRSA, read-out: MIC; for MIC-fold improvement vs. vancomycin: VRSA, ratio of MIC of vancomycin and MIC of analogue
Summary of the method: as §1

MRSA KS2 = test: MIC, broth microdilution, MRSA KS2; assay type: cell-based, Staphylococcus aureus; conditions: for MIC-fold improvement vs. vancomycin: MRSA KS2, ratio of MIC of vancomycin and MIC of analogue; for MIC: Staphylococcus aureus MRSA KS2, read-out: MIC
Summary of the method: as §1

MRSA KS6 = test: MIC, broth microdilution, MRSA KS6; assay type: cell-based, Staphylococcus aureus; conditions: for MIC-fold improvement vs. vancomycin: MRSA KS6, ratio of MIC of vancomycin and MIC of analogue; for MIC: Staphylococcus aureus MRSA KS6, read-out: MIC
Summary of the method: as §1

MRSA KS89 = test: MIC, broth microdilution, MRSA KS89; assay type: cell-based, Staphylococcus aureus; conditions: for MIC-fold improvement vs. vancomycin: MRSA KS8, ratio of MIC of vancomycin and MIC of analogue; for MIC: Staphylococcus aureus MRSA KS8, read-out: MIC
Summary of the method: as §1

MRSA KS1 = test: MIC, broth microdilution, MRSA KS1; assay type: cell-based, Staphylococcus aureus; conditions: for MIC-fold improvement vs. vancomycin: MRSA KS1, ratio of MIC of vancomycin and MIC of analogue; for MIC: Staphylococcus aureus MRSA KS1, read-out: MIC
Summary of the method: as §1

Structure (SMILES)	MIC (E. faecalis VSE 1) [µM]	MIC-fold improvement vs. vancomycin (E. faecalis VSE 1)	MIC (E. faecalis VRE 6) [µM]	MIC-fold improvement vs. vancomycin (E. faecalis VRE 6)	MIC (E. faecalis VRE 53) [µM]	MIC-fold improvement vs. vancomycin (E. faecalis VRE 53)	MIC (E. faecalis VRE 29) [µM]	MIC-fold improvement vs. vancomycin (E. faecalis VRE 29)	MIC (E. faecalis VRE 37) [µM]	IC50 [1] [µM]	IC50 [2] [µM]	IC50 [3] [µM]	IC50 [4] [µM]	MIC [5] [µM]	MIC-fold improvement vs. vancomycin [5]	MIC (S. aureus VISA/HIP5827) [µM]	MIC-fold improvement vs. vancomycin (S. aureus VISA/HIP5827)	MIC (S. aureus VRSA) [µM]	MIC-fold improvement vs. vancomycin (S. aureus VRSA)	MIC-fold improvement vs. vancomycin (MRSA KS2)	also measured
CCCCOc1ccc(C(=O)NCCCNC(=O)C2NC(=O)C3NC(=O)C(NC(=O)C4NC(=O)C(CC(N)=O)NC(=O)C(NC(=O)C(CC(C)C)NC)C(O)c5ccc(c(Cl)c5)Oc5cc4cc(c5OC4OC(CO)C(O)C(O)C4OC4CC(C)(N)C(O)C(C)O4)Oc4ccc(cc4Cl)C3O)c3ccc(O)c(c3)-c3c(O)cc(O)cc32)cc1 (stereo not shown) [Vanc-50]	0.39 (≈ 0.656 µg/mL)	4	6.25 (≈ 10.5 µg/mL)	32	12.5 (≈ 21 µg/mL)	32	12.5 (≈ 21 µg/mL)	32	12.5 (≈ 21 µg/mL)	> 250	86 ± 2	96 ± 4	144	0.39 (≈ 0.656 µg/mL)	2	0.78 (≈ 1.31 µg/mL)	8	0.78 (≈ 1.31 µg/mL)	128	4	MIC (MRSA KS2): 0.20 µM (≈ 0.336 µg/mL); MIC-fold improvement vs. vancomycin (MRSA KS6): 2; MIC (MRSA KS6): 0.39 µM (≈ 0.656 µg/mL); MIC-fold improvement vs. vancomycin (MRSA KS89): 2; MIC (MRSA KS89): 0.39 µM (≈ 0.656 µg/mL); MIC-fold improvement vs. vancomycin (MRSA KS1): 4; MIC (MRSA KS1): 0.20 µM (≈ 0.336 µg/mL)
CNC(CC(C)C)C(=O)NC1C(=O)NC(CC(N)=O)C(=O)NC2C(=O)NC3C(=O)NC(C(=O)NC(C(=O)NCCCNC(=O)c4ccc5cc(O)ccc5c4)c4cc(O)cc(O)c4-c4cc3ccc4O)C(O)c3ccc(c(Cl)c3)Oc3cc2cc(c3OC2OC(CO)C(O)C(O)C2OC2CC(C)(N)C(O)C(C)O2)Oc2ccc(cc2Cl)C1O (stereo not shown) [Vanc-30]	0.39 (≈ 0.653 µg/mL)	4	3.13 (≈ 5.24 µg/mL)	64	25 (≈ 41.9 µg/mL)	16	12.5 (≈ 20.9 µg/mL)	32	25 (≈ 41.9 µg/mL)	> 250	> 250	45 ± 25	182	0.39 (≈ 0.653 µg/mL)	2	0.39 (≈ 0.653 µg/mL)	16	3.13 (≈ 5.24 µg/mL)	32	2	MIC-fold improvement vs. vancomycin (E. faecalis VRE 37; VRE 37, ratio of MIC of vancomycin and MIC of analogue): 16; MIC (MRSA KS2): 0.39 µM (≈ 0.653 µg/mL); MIC-fold improvement vs. vancomycin (MRSA KS6): 2; MIC (MRSA KS6): 0.39 µM (≈ 0.653 µg/mL); MIC-fold improvement vs. vancomycin (MRSA KS89): 2; MIC (MRSA KS89): 0.39 µM (≈ 0.653 µg/mL); MIC-fold improvement vs. vancomycin (MRSA KS1): 2; MIC (MRSA KS1): 0.39 µM (≈ 0.653 µg/mL)

Source: article PMC6001238, “Iterative Chemical Engineering of Vancomycin Leads to Novel Vancomycin Analogs With a High in Vitro Therapeutic Index” (Frontiers in Microbiology, 2018)
